#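 How tested: cells in 96-well plates exposed to compound for 48 hours at five concentrations. At the GI50, growth is halved. The concentration for full growth arrest is given as TGI.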
# What was measured:
# Assay in all cases: inhibition of tumour cell growth, NCI panel, 48 h
# 786-0 renal = test system: 786-0 renal
# A498 renal = test system: A498 renal
# A549 NSCLC = test system: A549 NSCLC
# ACHN renal = test system: ACHN renal
# BT-549 breast = test system: BT-549 breast
# CAKI-1 renal = test system: CAKI-1 renal
# CCRF-CEM leukemia = test system: CCRF-CEM leukemia
# COLO 205 colon = test system: COLO 205 colon
# DU-145 prostate = test system: DU-145 prostate
# EKVX NSCLC = test system: EKVX NSCLC
# HCC-2998 colon = test system: HCC-2998 colon
# HCT-116 colon = test system: HCT-116 colon
# HCT-15 colon = test system: HCT-15 colon
# HL-60(TB) leukemia = test system: HL-60(TB) leukemia
# HOP-62 NSCLC = test system: HOP-62 NSCLC
# HOP-92 NSCLC = test system: HOP-92 NSCLC
# HS 578T breast = test system: HS 578T breast
# HT29 colon = test system: HT29 colon
# IGROV1 ovarian = test system: IGROV1 ovarian
# K-562 leukemia = test system: K-562 leukemia
# KM12 colon = test system: KM12 colon
# LOX IMVI melanoma = test system: LOX IMVI melanoma
# M14 melanoma = test system: M14 melanoma
# MALME-3M melanoma = test system: MALME-3M melanoma
# MCF7 breast = test system: MCF7 breast
# MDA-MB-231 breast = test system: MDA-MB-231 breast
# MDA-MB-435 = test system: MDA-MB-435
# MDA-MB-468 breast = test system: MDA-MB-468 breast
# MOLT-4 leukemia = test system: MOLT-4 leukemia
# NCI-H226 lung = test system: NCI-H226 lung
# NCI-H23 lung = test system: NCI-H23 lung
# NCI-H460 lung = test system: NCI-H460 lung
# NCI-H522 lung = test system: NCI-H522 lung
# NCI/ADR-RES ovarian = test system: NCI/ADR-RES ovarian
# OVCAR-3 ovarian = test system: OVCAR-3 ovarian
# OVCAR-4 ovarian = test system: OVCAR-4 ovarian
# OVCAR-5 ovarian = test system: OVCAR-5 ovarian
# OVCAR-8 ovarian = test system: OVCAR-8 ovarian
# PC-3 prostate = test system: PC-3 prostate
# RPMI-8226 leukemia = test system: RPMI-8226 leukemia
# RXF 393 renal = test system: RXF 393 renal
# SF-268 CNS = test system: SF-268 CNS
# SF-295 CNS = test system: SF-295 CNS
# SF-539 CNS = test system: SF-539 CNS
# SK-MEL-2 melanoma = test system: SK-MEL-2 melanoma
# SK-MEL-28 melanoma = test system: SK-MEL-28 melanoma
# SK-MEL-5 melanoma = test system: SK-MEL-5 melanoma
# SK-OV-3 ovarian = test system: SK-OV-3 ovarian
# SN12C renal = test system: SN12C renal
# SNB-19 CNS = test system: SNB-19 CNS
# SNB-75 CNS = test system: SNB-75 CNS
# SR leukemia = test system: SR leukemia
# SW-620 colon = test system: SW-620 colon
# TK-10 renal = test system: TK-10 renal
# U251 CNS = test system: U251 CNS
# UACC-257 melanoma = test system: UACC-257 melanoma
# UACC-62 melanoma = test system: UACC-62 melanoma
# UO-31 renal = test system: UO-31 renal
structure (smiles),measurement,setting,value
O=C(Nc1ccc(OCc2ccccc2)cc1)Nc1ccc(Cl)c(C(F)(F)F)c1,GI50,786-0 renal,2.09 µM
same,TGI,786-0 renal,9.89 µM
same,GI50,A498 renal,1.24 µM
same,TGI,A498 renal,3.9 µM
same,GI50,A549 NSCLC,1.83 µM
same,TGI,A549 NSCLC,15.2 µM
same,GI50,ACHN renal,1.76 µM
same,TGI,ACHN renal,4.93 µM
same,GI50,BT-549 breast,1.62 µM
same,TGI,BT-549 breast,4.68 µM
same,GI50,CAKI-1 renal,1.61 µM
same,TGI,CAKI-1 renal,5.46 µM
same,GI50,CCRF-CEM leukemia,1.69 µM
same,TGI,CCRF-CEM leukemia,5.2 µM
same,GI50,COLO 205 colon,1.67 µM
same,TGI,COLO 205 colon,4.25 µM
same,GI50,DU-145 prostate,2.28 µM
same,TGI,DU-145 prostate,21.1 µM
same,GI50,EKVX NSCLC,1.91 µM
same,TGI,EKVX NSCLC,7.09 µM
same,GI50,HCC-2998 colon,2.19 µM
same,TGI,HCC-2998 colon,29.8 µM
same,GI50,HCT-116 colon,1.9 µM
same,TGI,HCT-116 colon,11.5 µM
same,GI50,HCT-15 colon,2 µM
same,TGI,HCT-15 colon,14 µM
same,GI50,HL-60(TB) leukemia,1.54 µM
same,TGI,HL-60(TB) leukemia,7.77 µM
same,GI50,HOP-62 NSCLC,2.11 µM
same,TGI,HOP-62 NSCLC,41.1 µM
same,GI50,HOP-92 NSCLC,1.34 µM
same,TGI,HOP-92 NSCLC,3.83 µM
same,GI50,HS 578T breast,1.9 µM
same,TGI,HS 578T breast,15.7 µM
same,GI50,HT29 colon,2.25 µM
same,TGI,HT29 colon,10.2 µM
same,GI50,IGROV1 ovarian,2.57 µM
same,TGI,IGROV1 ovarian,> 64.3 µM
same,GI50,K-562 leukemia,2.34 µM
same,TGI,K-562 leukemia,> 64.3 µM
same,GI50,KM12 colon,2.1 µM
same,TGI,KM12 colon,12 µM
same,GI50,LOX IMVI melanoma,2.02 µM
same,TGI,LOX IMVI melanoma,7.36 µM
same,GI50,M14 melanoma,2.17 µM
same,TGI,M14 melanoma,> 64.3 µM
same,GI50,MALME-3M melanoma,1.54 µM
same,TGI,MALME-3M melanoma,4.36 µM
same,GI50,MCF7 breast,1.81 µM
same,TGI,MCF7 breast,6.77 µM
same,GI50,MDA-MB-231 breast,2.58 µM
same,TGI,MDA-MB-231 breast,11.1 µM
same,GI50,MDA-MB-435,1.98 µM
same,TGI,MDA-MB-435,27.2 µM
same,GI50,MDA-MB-468 breast,1.42 µM
same,TGI,MDA-MB-468 breast,4.12 µM
same,GI50,MOLT-4 leukemia,2.5 µM
same,TGI,MOLT-4 leukemia,18.1 µM
same,GI50,NCI-H226 lung,2 µM
same,TGI,NCI-H226 lung,7.03 µM
same,GI50,NCI-H23 lung,1.5 µM
same,TGI,NCI-H23 lung,4.39 µM
same,GI50,NCI-H460 lung,1.69 µM
same,TGI,NCI-H460 lung,5.61 µM
same,GI50,NCI-H522 lung,1.29 µM
same,TGI,NCI-H522 lung,3.52 µM
same,GI50,NCI/ADR-RES ovarian,1.94 µM
same,TGI,NCI/ADR-RES ovarian,7.23 µM
same,GI50,OVCAR-3 ovarian,1.61 µM
same,TGI,OVCAR-3 ovarian,4.96 µM
same,GI50,OVCAR-4 ovarian,2.37 µM
same,TGI,OVCAR-4 ovarian,27 µM
same,GI50,OVCAR-5 ovarian,3.25 µM
same,TGI,OVCAR-5 ovarian,58.3 µM
same,GI50,OVCAR-8 ovarian,2.1 µM
same,TGI,OVCAR-8 ovarian,41.3 µM
same,GI50,PC-3 prostate,1.78 µM
same,TGI,PC-3 prostate,7.16 µM
same,GI50,RPMI-8226 leukemia,1.69 µM
same,TGI,RPMI-8226 leukemia,7.56 µM
same,GI50,RXF 393 renal,4.53 µM
same,TGI,RXF 393 renal,41.2 µM
same,GI50,SF-268 CNS,2.28 µM
same,TGI,SF-268 CNS,> 64.3 µM
same,GI50,SF-295 CNS,1.76 µM
same,TGI,SF-295 CNS,5.44 µM
same,GI50,SF-539 CNS,2.34 µM
same,TGI,SF-539 CNS,9.41 µM
same,GI50,SK-MEL-2 melanoma,1.51 µM
same,TGI,SK-MEL-2 melanoma,3.65 µM
same,GI50,SK-MEL-28 melanoma,2.02 µM
same,TGI,SK-MEL-28 melanoma,> 64.3 µM
same,GI50,SK-MEL-5 melanoma,2.14 µM
same,TGI,SK-MEL-5 melanoma,8.25 µM
same,GI50,SK-OV-3 ovarian,1.81 µM
same,TGI,SK-OV-3 ovarian,4.99 µM
same,GI50,SN12C renal,1.75 µM
same,TGI,SN12C renal,6.71 µM
same,GI50,SNB-19 CNS,2.01 µM
same,TGI,SNB-19 CNS,14.1 µM
same,GI50,SNB-75 CNS,1.79 µM
same,TGI,SNB-75 CNS,6.18 µM
same,GI50,SR leukemia,2.19 µM
same,TGI,SR leukemia,13.2 µM
same,GI50,SW-620 colon,2 µM
same,TGI,SW-620 colon,11.2 µM
same,GI50,TK-10 renal,2.4 µM
same,TGI,TK-10 renal,30.1 µM
same,GI50,U251 CNS,2 µM
same,TGI,U251 CNS,6.59 µM
same,GI50,UACC-257 melanoma,1.4 µM
same,TGI,UACC-257 melanoma,5.67 µM
same,GI50,UACC-62 melanoma,1.82 µM
same,TGI,UACC-62 melanoma,11 µM
same,GI50,UO-31 renal,1.6 µM
same,TGI,UO-31 renal,5.31 µM
